Values quoted from earlier work as cited in US20200188326A1, “COMPOSITIONS AND METHODS OF TREATMENT FOR MVID AND RELATED DISEASES” (Vanessa Research, Inc., priority 2015, published 2020).

Test system: SLC26A3 exchanger
Conditions: in the intestine

In the case of Vitamin A, the “upregulation of the expression of SLC26A3 exchanger” value is listed as “up to 4 fold”.
